Laboratory results as given in US10632119B2, “Fused bicyclic 2,4-diaminopyrimidine derivative as a dual ALK and FAK inhibitor” (priority 2012, dated 2020).
Values after ≈ are worked out from the molar mass of the structure shown. Like-named read-outs stand apart in the source and are kept apart here.

Assays:
Muscarinic M1 = Muscarinic M1 (Homo sapiens, UniProt P11229); experiment: Receptor selectivity (Cerep); assay type: binding
Muscarinic M2 = Muscarinic M2 (Homo sapiens, UniProt P08172); experiment: Receptor selectivity (Cerep); assay type: binding
Muscarinic M2, sequence (P08172 whole entry): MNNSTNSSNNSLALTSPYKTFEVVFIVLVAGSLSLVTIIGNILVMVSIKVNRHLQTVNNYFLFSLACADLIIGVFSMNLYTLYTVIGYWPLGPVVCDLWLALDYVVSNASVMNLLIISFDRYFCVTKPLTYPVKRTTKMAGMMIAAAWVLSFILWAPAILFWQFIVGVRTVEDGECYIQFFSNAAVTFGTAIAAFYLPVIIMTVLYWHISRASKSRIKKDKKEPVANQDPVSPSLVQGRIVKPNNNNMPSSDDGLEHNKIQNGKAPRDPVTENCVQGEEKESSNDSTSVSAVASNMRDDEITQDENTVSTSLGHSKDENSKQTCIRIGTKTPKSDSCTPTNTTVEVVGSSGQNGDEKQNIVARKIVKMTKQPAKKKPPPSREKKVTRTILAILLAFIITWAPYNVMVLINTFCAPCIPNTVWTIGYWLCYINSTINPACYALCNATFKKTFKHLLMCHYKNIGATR

Muscarinic M3 = Muscarinic M3 (Homo sapiens, UniProt P20309); experiment: Receptor selectivity (Cerep); assay type: binding
Muscarinic M4 = Muscarinic M4 (Homo sapiens, UniProt P08173); experiment: Receptor selectivity (Cerep); assay type: binding
Muscarinic M4, sequence (P08173 whole entry): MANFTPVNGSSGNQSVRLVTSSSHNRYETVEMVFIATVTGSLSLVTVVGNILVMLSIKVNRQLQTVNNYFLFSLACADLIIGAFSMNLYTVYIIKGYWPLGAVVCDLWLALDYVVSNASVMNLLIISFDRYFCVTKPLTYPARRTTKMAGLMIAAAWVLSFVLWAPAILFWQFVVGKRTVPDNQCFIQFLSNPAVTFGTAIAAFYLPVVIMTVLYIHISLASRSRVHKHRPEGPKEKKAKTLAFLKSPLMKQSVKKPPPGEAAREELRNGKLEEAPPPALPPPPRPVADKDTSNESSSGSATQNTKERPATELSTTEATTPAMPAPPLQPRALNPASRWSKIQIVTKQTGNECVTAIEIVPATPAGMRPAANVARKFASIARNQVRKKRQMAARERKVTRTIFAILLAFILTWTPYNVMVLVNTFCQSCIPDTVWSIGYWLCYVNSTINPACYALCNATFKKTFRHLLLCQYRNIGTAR

Neurokinin NK1 = Neurokinin NK1 (Homo sapiens, UniProt P25103); experiment: Receptor selectivity (Cerep); assay type: binding
Neurokinin NK1, sequence (P25103 whole entry): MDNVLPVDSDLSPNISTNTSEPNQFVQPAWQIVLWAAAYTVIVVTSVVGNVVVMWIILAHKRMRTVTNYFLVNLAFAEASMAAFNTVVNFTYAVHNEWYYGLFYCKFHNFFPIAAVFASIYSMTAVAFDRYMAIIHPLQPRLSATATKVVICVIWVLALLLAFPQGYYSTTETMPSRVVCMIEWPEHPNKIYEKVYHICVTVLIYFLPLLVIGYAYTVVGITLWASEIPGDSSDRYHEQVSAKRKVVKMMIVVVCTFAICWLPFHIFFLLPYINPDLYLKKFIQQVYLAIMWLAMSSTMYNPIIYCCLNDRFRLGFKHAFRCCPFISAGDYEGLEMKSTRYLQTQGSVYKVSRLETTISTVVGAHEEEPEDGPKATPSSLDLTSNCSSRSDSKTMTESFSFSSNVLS

hERG = hERG (Homo sapiens, UniProt Q12809); experiment: hERG patch clamp; assay type: cell-based
hERG, sequence (Q12809 whole entry): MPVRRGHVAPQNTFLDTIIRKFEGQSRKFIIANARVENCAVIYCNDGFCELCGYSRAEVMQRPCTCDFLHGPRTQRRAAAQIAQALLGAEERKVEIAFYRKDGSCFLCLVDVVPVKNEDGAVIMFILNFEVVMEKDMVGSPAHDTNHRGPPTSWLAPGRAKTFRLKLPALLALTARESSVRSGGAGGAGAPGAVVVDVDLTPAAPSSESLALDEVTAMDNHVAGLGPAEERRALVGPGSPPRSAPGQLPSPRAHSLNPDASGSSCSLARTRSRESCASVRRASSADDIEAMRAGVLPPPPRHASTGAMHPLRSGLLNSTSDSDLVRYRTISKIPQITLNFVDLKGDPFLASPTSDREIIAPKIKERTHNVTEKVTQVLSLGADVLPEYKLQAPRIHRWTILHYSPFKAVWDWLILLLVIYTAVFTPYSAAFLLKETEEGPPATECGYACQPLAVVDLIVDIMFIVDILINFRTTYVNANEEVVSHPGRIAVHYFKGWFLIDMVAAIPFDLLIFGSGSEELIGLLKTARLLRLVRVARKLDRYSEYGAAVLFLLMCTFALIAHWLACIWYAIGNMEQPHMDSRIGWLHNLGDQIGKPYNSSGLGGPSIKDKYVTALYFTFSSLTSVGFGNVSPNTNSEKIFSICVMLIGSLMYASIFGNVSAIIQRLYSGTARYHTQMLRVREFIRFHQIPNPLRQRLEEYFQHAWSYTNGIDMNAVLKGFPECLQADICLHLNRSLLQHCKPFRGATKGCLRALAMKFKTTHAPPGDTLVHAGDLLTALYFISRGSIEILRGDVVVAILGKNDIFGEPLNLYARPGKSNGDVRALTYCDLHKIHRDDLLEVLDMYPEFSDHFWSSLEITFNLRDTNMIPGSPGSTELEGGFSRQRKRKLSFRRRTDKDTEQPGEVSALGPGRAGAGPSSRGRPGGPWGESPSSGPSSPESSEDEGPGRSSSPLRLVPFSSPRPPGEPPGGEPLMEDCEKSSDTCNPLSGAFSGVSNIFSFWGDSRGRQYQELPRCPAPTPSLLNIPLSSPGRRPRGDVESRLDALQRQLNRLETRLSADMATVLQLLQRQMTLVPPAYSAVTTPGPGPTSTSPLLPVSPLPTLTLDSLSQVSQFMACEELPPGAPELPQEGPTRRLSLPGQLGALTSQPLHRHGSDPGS

Equilibrium solubility = assay type: physicochemical; conditions: thermodynamic from solid
[1] = In vitro metabolic stability, mouse; assay type: in vitro ADME; conditions: mouse (M); read-out: In vitro metabolic stability t1/2
[2] = In vitro metabolic stability, rat; assay type: in vitro ADME; conditions: rat (R); read-out: In vitro metabolic stability t1/2
[3] = In vitro metabolic stability, monkey; assay type: in vitro ADME; conditions: monkey (Mo); read-out: In vitro metabolic stability t1/2
[4] = In vitro metabolic stability, human; assay type: in vitro ADME; conditions: human (H); read-out: In vitro metabolic stability t1/2
CYP 1A2 = CYP 1A2 (Homo sapiens, UniProt P05177); experiment: CYP inhibition; assay type: in vitro ADME
CYP 1A2, sequence (P05177 whole entry): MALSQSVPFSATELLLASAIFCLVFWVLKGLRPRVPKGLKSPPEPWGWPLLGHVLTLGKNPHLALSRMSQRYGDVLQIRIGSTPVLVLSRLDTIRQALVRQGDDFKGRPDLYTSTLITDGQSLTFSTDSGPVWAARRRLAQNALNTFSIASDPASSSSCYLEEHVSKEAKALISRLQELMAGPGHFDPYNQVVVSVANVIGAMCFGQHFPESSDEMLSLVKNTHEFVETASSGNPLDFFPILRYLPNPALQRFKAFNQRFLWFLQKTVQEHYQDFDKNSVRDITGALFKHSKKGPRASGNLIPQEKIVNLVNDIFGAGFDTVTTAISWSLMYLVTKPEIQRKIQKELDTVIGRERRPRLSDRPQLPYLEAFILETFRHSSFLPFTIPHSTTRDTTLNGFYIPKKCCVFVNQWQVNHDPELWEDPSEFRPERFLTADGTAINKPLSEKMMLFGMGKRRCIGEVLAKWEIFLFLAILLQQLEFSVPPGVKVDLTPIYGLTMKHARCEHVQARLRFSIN

CYP 2C9 = CYP 2C9 (Homo sapiens, UniProt P11712); experiment: CYP inhibition; assay type: in vitro ADME
CYP 2C9, sequence (P11712 whole entry): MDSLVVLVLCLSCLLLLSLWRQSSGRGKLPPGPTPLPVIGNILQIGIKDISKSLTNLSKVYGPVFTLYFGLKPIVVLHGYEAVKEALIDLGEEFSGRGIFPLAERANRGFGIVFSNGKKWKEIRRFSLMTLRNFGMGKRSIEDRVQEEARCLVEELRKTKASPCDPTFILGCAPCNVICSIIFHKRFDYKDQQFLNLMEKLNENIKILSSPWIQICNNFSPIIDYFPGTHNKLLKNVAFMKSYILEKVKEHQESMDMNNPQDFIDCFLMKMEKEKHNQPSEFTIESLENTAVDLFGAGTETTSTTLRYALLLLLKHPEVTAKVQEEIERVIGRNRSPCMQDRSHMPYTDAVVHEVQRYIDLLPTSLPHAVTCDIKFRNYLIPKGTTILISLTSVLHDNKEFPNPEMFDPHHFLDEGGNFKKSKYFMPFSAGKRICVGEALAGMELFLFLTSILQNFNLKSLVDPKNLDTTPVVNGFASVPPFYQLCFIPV

CYP 2C19 = CYP 2C19 (Homo sapiens, UniProt P33261); experiment: CYP inhibition; assay type: in vitro ADME
CYP 2C19, sequence (P33261 whole entry): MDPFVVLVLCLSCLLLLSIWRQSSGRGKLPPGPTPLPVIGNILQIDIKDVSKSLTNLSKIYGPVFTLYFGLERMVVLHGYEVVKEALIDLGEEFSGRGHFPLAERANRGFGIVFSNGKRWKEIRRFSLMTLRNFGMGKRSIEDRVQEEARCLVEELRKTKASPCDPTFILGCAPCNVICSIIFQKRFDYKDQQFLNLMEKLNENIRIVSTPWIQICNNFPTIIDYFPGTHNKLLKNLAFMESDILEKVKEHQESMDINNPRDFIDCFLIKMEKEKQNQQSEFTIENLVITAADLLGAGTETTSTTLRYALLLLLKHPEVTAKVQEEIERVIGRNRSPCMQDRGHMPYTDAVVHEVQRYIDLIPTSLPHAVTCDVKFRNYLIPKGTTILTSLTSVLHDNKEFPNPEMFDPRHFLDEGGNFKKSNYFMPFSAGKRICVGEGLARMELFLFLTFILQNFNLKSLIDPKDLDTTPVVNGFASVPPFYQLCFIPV

Caco-2 permeability = assay type: in vitro ADME; conditions: human
Protein binding, mouse = assay type: in vitro ADME; conditions: mouse (M)
Protein binding, dog = assay type: in vitro ADME; conditions: dog (D)
Protein binding, human = assay type: in vitro ADME; conditions: human (H)
Rat bioavailability = conditions: in vivo, po
Monkey bioavailability = conditions: in vivo, po
[5] = 4-week oral toxicity and toxicokinetic study of CEP-37440 in monkeys, 4-week recovery; assay type: in vivo, cynomolgus monkeys (Macaca fascicularis)
Experimental: Male and female cynomolgus monkeys (Macaca fascicularis) were assigned to 4 groups (3-treated and a vehicle control group) consisting of 5 monkeys/sex/group. Dose levels evaluated in this study were 0 (pH-adjusted reverse osmosis water), 2.5, 7.5, and 20 mg/kg/day. The dosing volume was 5 mL/kg. CEP-37440 was administered as the trihydrochloride dihydrate salt form. After completion of the dosing phase, 3 monkeys/sex/group were euthanized and 2 monkeys/sex/group continued on a treatment-free recovery phase for an additional 4 weeks.

[6] = test system: Karpas-299 tumor xenografts; conditions: for anti-tumor efficacy: amorphous HCl salt
Experimental: Anti-Tumor Efficacy Studies—General Protocol
(§1) The tumor volumes were then calculated with the formula of 0.5236*L*W*(L+W)/2.
Anti-Tumor Efficacy in NPM-ALK Positive Sup-M2 and Karpas-299 ALCL Tumor Xenograft Models in Mice

[7] = test system: Detroit 562 HNSCC xenografts
Text: (§2) Anti-Tumor Efficacy Studies in Human Tumor Xenografts of Hormone-Independent Prostate Carcinoma, NSCL Carcinoma and HNSC Carcinoma
(§3) The human prostate carcinoma cell lines, CWR22 and PC3, and human head and neck squamous cell carcinoma cell line Detroit 562 were obtained from American Tissue Culture Collection (ATCC, Manassas, Va.). […] Human non-small cell lung cancer cell line HCC-827 and human breast cancer cell line BT474 were also purchased from the ATCC (Manassas, Va.) and cultured in RPMI (Cat #10-040, Mediatech Inc, Manassas, Va.) with 10% FBS. The rabbit phospho-FAK (Tyr397) (Cat #3283) and FAK antibodies (Cat #3285) were purchased from Cell Signaling Technology (Beverly, Mass.).
(§4) The mice were then monitored daily.
as §1

[8] = test system: HCC-827 human NSCL carcinoma xenografts
Text: as §2, §3, §4, §1

[9] = test system: PC-3 prostate tumor xenografts
Text: as §2, §3, §4, §1

[10] = 10 days
in vivo = conditions: both, rat, po
Experimental: Animals were dosed via oral gavage.
Assessment of toxicity was based on mortality, clinical observations, body weights, body weight changes, food consumption, ophthalmic examinations, and clinical and anatomic pathology. Blood samples were collected for toxicokinetic evaluations.

CYP3A4 = CYP3A4 induction in vitro; conditions: @ 10 μM
[11] = test system: NCI-H2228 NSCLC tumor xenografts; experiment: Anti-tumor activity, EML4-ALK positive NCI-H2228 NSCLC xenograft
Text: Anti-Tumor Activity in EML4-ALK Positive (NCI-H2228 and NCI-H3122) NSCLC Tumor Xenografts in Mice with Oral Dosing
Generation of EML4-ALK-positive and EML4-ALK-negative NSCLC Subcutaneous Tumor Xenografts in Scid Mice Female Scid/Beige mice (6-8 weeks, Taconic, Hudson. N.Y.) were maintained 5/cage in microisolator units on a standard laboratory diet (Teklad Labchow, Harlan Teklad, Madison, Wis.). Animals were housed under humidity- and temperature controlled conditions and the light/dark cycle was set at 12-hour intervals. Mice were quarantined at least 1 week prior to experimental manipulation. […] The mice were monitored until the tumor xenograft volumes reached 200-500 mm3.
The length (L) and width (W) of each tumor were measured with vernier calipers and the mouse body weight was determined every two to three days. […] Percent tumor growth inhibition (% TGI) was calculated as follows: (tumor volume of the control group at end of treatment—tumor volume of the treated group at the end of treatment)/tumor volume of the control group at the end of treatment. […] Complete tumor regression (CR) was defined as the tumor volume of the treated group at the end of treatment being less than 5% of the tumor volume of the treated group as the start of treatment. Statistical analyses of tumor volumes and mouse body weights were carried out with the Mann-Whitney Rank Sum Test. Plasma and tumor samples were obtained at 2 hours post final dose at each dose level, and the compound levels in plasma and tumor lysates were measured by LC-MS/MS

[12] = four weeks of additional treatment at 55 mg/kg qd po

Muscarinic M1, sequence (P11229 whole entry): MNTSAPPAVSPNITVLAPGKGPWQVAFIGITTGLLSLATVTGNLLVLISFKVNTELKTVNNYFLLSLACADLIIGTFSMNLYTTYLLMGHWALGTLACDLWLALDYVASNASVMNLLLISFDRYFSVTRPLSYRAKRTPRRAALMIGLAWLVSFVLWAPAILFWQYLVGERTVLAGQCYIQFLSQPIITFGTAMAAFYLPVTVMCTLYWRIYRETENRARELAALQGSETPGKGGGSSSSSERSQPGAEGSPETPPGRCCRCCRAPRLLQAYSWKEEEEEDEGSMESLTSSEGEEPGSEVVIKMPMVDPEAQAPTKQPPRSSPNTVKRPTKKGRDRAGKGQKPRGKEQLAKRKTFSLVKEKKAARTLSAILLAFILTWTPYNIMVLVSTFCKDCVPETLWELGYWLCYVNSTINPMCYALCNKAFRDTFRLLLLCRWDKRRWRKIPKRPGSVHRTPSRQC

For CNC(=O)c1ccccc1Nc1nc(Nc2ccc3c(c2OC)CCC[C@H](N2CCN(CCO)CC2)C3)ncc1Cl [CEP-37440, 2-[[5-chloro-2-[[(6S)-6-[4-(2-hydroxyethyl)piperazin-1-yl]-1-methoxy-6,7,8,9-tetrahydro-5H-benzo[7]annulen-2-yl]amino]pyrimidin-4-yl]amino]-N-methyl-benzamide], the Ki (Muscarinic M1) was 2.46 µM, the Ki (Muscarinic M2) was 2 µM and the Ki (Muscarinic M3) was 3.5 µM. It also gave a Ki (Muscarinic M4) of 0.46 µM, a Ki (Neurokinin NK1) of 1.2 µM and an IC50 (hERG) greater than 10 µM. For the same compound, the solubility thermodynamic (Equilibrium solubility; pH 2, simulated gastric fluid, read-out: Equilibrium solubility at pH 2) was greater than 1 mg/mL, the solubility thermodynamic (Equilibrium solubility; pH 7.4, aqueous buffer, read-out: Equilibrium solubility at pH 7.4) was 0.28 mg/mL (≈ 483 µM) and the half-life [1] was greater than 40 min. For the same compound, the half-life [2] was greater than 40 min, the half-life [3] was 21 min and the half-life [4] was greater than 40 min. For the same compound, the IC50 (CYP 1A2) was greater than 30 µM, the IC50 (CYP 2C9) was greater than 30 µM and the IC50 (CYP 2C19) was greater than 20 µM. It also gave a Papp (Caco-2 permeability) of 12.6 nm/s, a Protein binding (Protein binding, mouse) of 85 % bound and a Protein binding (Protein binding, dog) of 94 % bound. For the same compound, the Protein binding (Protein binding, human) was 95 % bound, the bioavailability (Rat bioavailability) was greater than 42% and the bioavailability (Monkey bioavailability; 10 mg/kg) was 50%. The bioavailability (Monkey bioavailability; 30 mg/kg) was 74%, the survival ([5]; 2.5, 7.5, 20 mg/kg/day, 4 weeks) was “All animals survived until their scheduled sacrifice” and the ECG ([5]; 2.5, 7.5, 20.0 mg/kg/day, Days 3 and 27 of dosing, Day 28 of recovery) was “No drug-related changes in PR interval, QRS duration, QT interval, corrected QT (QTc) interval, RR interval, or heart rate”. The body weight ([5]; dosing or recovery phase) was “no drug-related effects on body weight or body weight gain”, the “doses well tolerated, no drug-related effects” value ([5]; oral, 28 consecutive days) was “up to 20 mg/kg/day” and the “clinical pathology test results” value ([5]; up to 20.0 mg/kg/day) was “had no effect on clinical pathology test results”. The pulmonary edema ([5]; up to 20 mg/kg/day, 28 days) was “no evidence whatsoever of pulmonary edema”, the anti-tumor efficacy ([6]; 30 mg/kg bid, 12 days) was “complete or near complete tumor regression” and the anti-tumor efficacy ([6]; 30 mg/kg qd) was “significant anti-tumor activity”. For the same compound, the anti-tumor efficacy ([6]; 55 mg/kg, qd, 12 days) was “complete or near complete tumor regression”, the “tolerability, body weight” value ([6]; all dosing regimens) was “well tolerated with no overt toxicity and no significant body weight loss” and the “incidence of partial tumor regressions” value ([7]; 30 mg/kg bid, 28-day period) was 20%. For the same compound, the “incidence of partial tumor regressions” value ([7]; 55 mg/kg bid, 28-day period) was 30%, the anti-tumor efficacy ([7]; 28-day period) was “tumor stasis” and the tolerability ([7]; all dosing regimens) was “well-tolerated with no morbidity or mortality observed”. For the same compound, the “tumor pharmacodynamic inhibition of FAK activation” value ([7]; no effect on total FAK expression levels) was “clear tumor pharmacodynamic effect for inhibition of FAK activation”, the TGI ([8]; 30 mg/kg bid, day 28) was 60% and the TGI ([8]; 55 mg/kg bid, day 28) was 80%. The “incidence of complete tumor regressions” value ([8]; 55 mg/kg bid, day 28) was 30%, the “incidence of partial tumor regressions” value ([8]; 55 mg/kg bid, day 28) was 30% and the “incidence of tumor regressions” value ([8]; 55 mg/kg bid, day 28) was 60%. For the same compound, the “tolerability, body weight” value ([8]; mouse, in vivo) was “well tolerated, with no overt toxicity or significant body weight loss observed”, the “incidence of complete tumor regressions” value ([9]; 36 day period, oral) was 10% and the “tumor growth inhibition (TGI)” value ([9]; 36 day period, oral, equivalent doses of both compounds) was 55%. The “tolerability, body weight” value ([9]; all dosing regimens) was “well tolerated with no overt toxicity or significant body weight loss observed”, the “doses with drug-related adverse findings (body weight, bone marrow, spleen, thymus, lymph node, lung)” value ([10]; daily gavage) was no less than 30 mg/kg/day and the dose well tolerated ([10]; rat, in vivo) was 10 mg/kg/day. The NOAEL at 4 weeks (in vivo) was 10 mg/kg/day, the “CYP3A4 induction in vitro” value (CYP3A4) was 1.5 @ 10 μM fold and the “mice with sustained tumor regressions, no tumor re-emergence” value ([11]; 40 days following cessation of treatment) was 100%. For the same compound, the “animals with sustained complete tumor regression” value [11, 12] was 100% and the “tolerability, body weight” value [11, 12] was “well tolerated with no overt toxicity and no significant body weight loss”.
